What was measured:
[1] = system: GP2d cells (KRAS G12D); assay: Cell-based pERK HTRF assay in GP2d cell (Biological Example 2); conditions: GP2d (KRAS G12D) cells, pERK HTRF
Outline: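 HTRF read-out of pERK (excitation 320 nm, emission 615 nm) after lysates sat 4–24 h at room temperature with Eu cryptate and d2 antibodies.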

[2] = molecular target: T1, Avi-KRAS G12V (1-169) GppNHp/RAF1 RBD-3xFLAG (52-151) (Homo sapiens, UniProt P01116, G12V); assay: Raf1-KRAS G12V-GppNHP disruption HTRF assay (Biological Example 1); assay type: binding
T1 construct: Avi-KRAS G12V (1-169)
Outline: (§1)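 Compounds were tested for disruption of KRAS–RAF1 RBD binding by HTRF in 50 mM Tris pH 7.5, 100 mM NaCl, 5 mM MgCl2, 0.1% BSA, 0.01% Tween, 10% DMSO. Protein mix was incubated 1 h at room temperature with shaking, then detection reagents added for another 1 h. Activity expressed as percent of DMSO control.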

[3] = molecular target: T2, Avi-KRAS G12R (1-169) GppNHp/RAF1 RBD-3xFLAG (52-151) (Homo sapiens, UniProt P01116, G12R); assay: Raf1-KRAS G12R-GppNHP disruption HTRF assay (Biological Example 1); assay type: binding
T2 construct: Avi-KRAS G12R (1-169)
Outline: as §1

[4] = system: SW620 cells (KRAS G12V); assay: Cell-based pERK HTRF assay in SW620 cell (Biological Example 4); conditions: pERK HTRF
Outline: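 This assay measures inhibition of ERK phosphorylation downstream of KRAS G12V in intact SW620 cells. Compounds are applied for 4 h over nine half-log concentrations starting at 1 μM, and pERK is quantified by HTRF.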

[5] = molecular target: T3, Avi-KRAS G12D (1-169) GppNHp/RAF1 RBD-3xFLAG (52-151) (Homo sapiens, UniProt P01116, G12D); assay: Raf1-KRAS G12D-GppNHP disruption HTRF assay (Biological Example 1); assay type: binding
T3 construct: Avi-KRAS G12D (1-169)
Outline: as §1

[6] = molecular target: T4, Avi-KRAS WT (1-169) GppNHp/RAF1 RBD-3xFLAG (52-151) (Homo sapiens, UniProt P01116); assay: Raf1-KRAS WT-GppNHP disruption HTRF assay (Biological Example 1); assay type: binding
T4 construct: Avi-KRAS WT (1-169)
Outline: as §1

[7] = KRAS G12V, GppNHp-loaded, class symbols
[8] = KRAS G12R, GppNHp-loaded, class symbols
[9] = Homo sapiens, SW-620, SW620 (KRAS G12V) cells, class symbols
[10] = KRAS G12D, GppNHp-loaded, class symbols
[11] = KRAS WT, GppNHp-loaded, class symbols
[12] = Homo sapiens, SW-620, SW620 (KRAS G12V) cells

T2 sequence (P01116 1-169 isoform P01116-2 G12R): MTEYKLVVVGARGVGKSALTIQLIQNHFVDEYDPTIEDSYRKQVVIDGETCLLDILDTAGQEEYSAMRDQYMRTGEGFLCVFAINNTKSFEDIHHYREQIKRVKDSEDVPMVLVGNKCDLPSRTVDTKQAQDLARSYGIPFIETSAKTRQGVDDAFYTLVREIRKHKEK
T4 sequence (P01116 1-169 isoform P01116-2): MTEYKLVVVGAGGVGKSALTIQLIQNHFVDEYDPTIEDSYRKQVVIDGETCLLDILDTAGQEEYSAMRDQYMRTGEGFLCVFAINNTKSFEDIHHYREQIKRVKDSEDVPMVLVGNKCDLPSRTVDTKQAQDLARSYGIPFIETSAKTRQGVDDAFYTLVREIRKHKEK
T1 sequence (P01116 1-169 isoform P01116-2 G12V): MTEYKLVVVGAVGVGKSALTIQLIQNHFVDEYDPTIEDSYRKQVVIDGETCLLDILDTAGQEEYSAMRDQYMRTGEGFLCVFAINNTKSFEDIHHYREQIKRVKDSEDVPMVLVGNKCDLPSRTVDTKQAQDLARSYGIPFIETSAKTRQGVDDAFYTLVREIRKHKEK
T3 sequence (P01116 1-169 isoform P01116-2 G12D): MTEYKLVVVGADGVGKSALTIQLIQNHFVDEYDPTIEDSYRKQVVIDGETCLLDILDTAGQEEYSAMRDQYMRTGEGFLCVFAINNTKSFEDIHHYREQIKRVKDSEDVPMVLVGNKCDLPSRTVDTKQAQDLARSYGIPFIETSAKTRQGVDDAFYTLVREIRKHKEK

IC50 ([1]; GP2d, class symbols) [nM]	IC50 [2, 7] [nM]	IC50 [3, 8] [nM]	IC50 [4, 9] [nM]	IC50 [5, 10] [nM]	IC50 [6, 11] [nM]	Compound	other results
< 100	100 to 1000	100 to 1000	< 100	100 to 1000	100 to 1000	CCN(c1nc(OC[C@@]23CCCN2C[C@H](F)C3)nc2c(F)c(-c3ccc(F)c4sc(N)c(C#N)c34)c(C(F)(F)F)cc12)[C@H]1C[C@@H](C)N(C(=O)c2ccon2)C1 (atropisomer, axis not shown) [Compound 783]	
< 100	100 to 1000	100 to 1000	< 100	100 to 1000	100 to 1000	CN(C)C(=O)N1CC[C@H](N(c2nc(OC[C@@]34CCCN3C[C@H](F)C4)nc3c(F)c(-c4ccc(F)c5sc(N)c(C#N)c45)c(C(F)(F)F)cc23)C2CC2)C1 (atropisomer, axis not shown) [Compound 743]	
< 100	100 to 1000	< 100	< 100	< 100	100 to 1000	CCN(c1nc(OC[C@@]23CCCN2C[C@H](F)C3)nc2c(F)c(-c3ccc(F)c4sc(N)c(C#N)c34)c(C(F)(F)F)cc12)[C@H]1CCN(C(=O)c2cncnc2)C1 (atropisomer, axis not shown) [Compound 727]	
< 100	100 to 1000	< 100	< 100	< 100	100 to 1000	CCN(c1nc(OC[C@@]23CCCN2C[C@H](F)C3)nc2c(F)c(-c3ccc(F)c4sc(N)c(C#N)c34)c(C(F)(F)F)cc12)[C@H]1CCN(C(=O)OC2CC(F)C2)C1 (stereo partly drawn) [Compound 776]	
< 100	100 to 1000	100 to 1000	< 100	100 to 1000	< 100	CCN(c1nc(OC[C@@]23CCCN2C[C@H](F)C3)nc2c(F)c(-c3ccc(F)c4sc(N)c(C#N)c34)c(C(F)(F)F)cc12)[C@@H]1C[C@@H](C)N(C(=O)COC)C1 (atropisomer, axis not shown) [Compound 597]	
< 100	< 100	< 100	< 100	< 100	< 100	CCN(c1nc(OC[C@@]23CCCN2C[C@H](F)C3)nc2c(F)c(-c3ccc(F)c4sc(N)c(C#N)c34)c(C(F)(F)F)cc12)[C@@H]1CC(=O)N(CC(F)F)C1 (atropisomer, axis not shown) [Compound 612]	
< 100	< 100	< 100	< 100	< 100	< 100	CCN(c1nc(OC[C@@]23CCCN2C[C@H](F)C3)nc2c(F)c(-c3ccc(F)c4sc(N)c(C#N)c34)c(C(F)(F)F)cc12)[C@H]1CCN(C(=O)N2CC3(COC3)C2)C1 (atropisomer, axis not shown) [Compound 637]	
						CC(=O)N1CC[C@@H](N(C)c2nc(OC[C@@]34CCCN3C[C@H](F)C4)nc3c(F)c(-c4ccc(F)c5sc(N)c(C#N)c45)c(C(F)(F)F)cc23)[C@H]1C (single isomer, unassigned) [Compound 192]	IC50 [1]: > 1000 nM; IC50 ([2]; KRAS G12V, GppNHp-loaded, Table 11): > 10000 nM; IC50 ([3]; KRAS G12R, GppNHp-loaded, Table 11): > 10000 nM; IC50 ([4]; SW620 (KRAS G12V) cells): > 1000 nM; IC50 ([5]; KRAS G12D, GppNHp-loaded, Table 11): > 10000 nM; IC50 ([6]; KRAS WT, GppNHp-loaded, Table 11): > 10000 nM
						C[C@H]1C[C@H](N(C)c2nc(OC[C@@]34CCCN3C[C@H](F)C4)nc3c(F)c(-c4ccc(F)c5sc(N)c(C#N)c45)c(C(F)(F)F)cc23)CN1C(=O)C1CC1 [Compound 437]	IC50 ([1]; GP2d): < 100 nM; IC50 ([2]; KRAS G12V-GppNHp/RAF1 RBD HTRF): 100 to 1000 nM; IC50 ([3]; KRAS G12R-GppNHp/RAF1 RBD HTRF): 100 to 1000 nM; IC50 [4, 12]: < 100 nM; IC50 ([5]; KRAS G12D-GppNHp/RAF1 RBD HTRF): 100 to 1000 nM; IC50 ([6]; KRAS WT-GppNHp/RAF1 RBD HTRF): 100 to 1000 nM
< 100	100 to 1000	100 to 1000	< 100	100 to 1000	100 to 1000	CCN1CC[C@@H](N(CC)c2nc(OC[C@@]34CCCN3C[C@H](F)C4)nc3c(F)c(-c4ccc(F)c5sc(N)c(C#N)c45)c(C(F)(F)F)cc23)C1=O (atropisomer, axis not shown) [Compound 695]	
						C[C@@]1(CO)CCN1c1nc(OC[C@@]23CCCN2C[C@H](F)C3)nc2c(F)c(-c3ccc(F)c4sc(N)c(C#N)c34)c(C(F)(F)F)cc12 [Compound 413]	IC50 ([1]; GP2d): > 1000 nM; IC50 ([2]; KRAS G12V-GppNHp/RAF1 RBD HTRF): > 10000 nM; IC50 ([3]; KRAS G12R-GppNHp/RAF1 RBD HTRF): > 10000 nM; IC50 [4, 12]: > 1000 nM; IC50 ([5]; KRAS G12D-GppNHp/RAF1 RBD HTRF): > 10000 nM; IC50 ([6]; KRAS WT-GppNHp/RAF1 RBD HTRF): > 10000 nM

Reference: patent publication US20260042764A1, “COMPOSITIONS AND METHODS FOR INHIBITION OF KRAS” (TheRas, Inc., priority 2022, published 2026)
